Data from patent publication US7572823B2, “Heteroaryl carboxamide compounds” (Hoffmann-La Roche Inc., priority 2006, dated 2009).

Target: T1, cholesteryl ester transfer protein (CETP) (Homo sapiens, UniProt P11597)
T1 construct: the source of CETP was human lipoprotein-deprived serum (LPDS); from tissue; host or cells: human lipoprotein-deprived serum (LPDS)
T1 sequence (P11597 18-493): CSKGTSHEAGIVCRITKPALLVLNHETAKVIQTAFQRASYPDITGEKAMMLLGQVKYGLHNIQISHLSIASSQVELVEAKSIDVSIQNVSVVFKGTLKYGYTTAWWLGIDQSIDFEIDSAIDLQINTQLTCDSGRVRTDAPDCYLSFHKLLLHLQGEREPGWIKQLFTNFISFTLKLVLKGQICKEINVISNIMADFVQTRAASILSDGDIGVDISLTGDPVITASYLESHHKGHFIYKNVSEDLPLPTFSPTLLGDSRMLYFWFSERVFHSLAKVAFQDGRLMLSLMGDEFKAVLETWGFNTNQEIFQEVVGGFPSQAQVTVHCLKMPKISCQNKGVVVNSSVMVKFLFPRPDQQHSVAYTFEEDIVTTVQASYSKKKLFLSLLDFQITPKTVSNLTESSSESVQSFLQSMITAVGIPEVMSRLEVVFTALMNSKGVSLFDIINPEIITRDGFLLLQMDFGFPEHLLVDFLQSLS
Test: CETP inhibition SPA assay in the presence of plasma (CETP source: human lipoprotein-deprived serum)
Format: biochemical
Conditions: CETP source human lipoprotein-deprived serum (LPDS), radiolabeled cholesteryl ester transfer from HDL donor to biotin-labeled LDL acceptor
Experimental: Activity of CETP inhibitors was determined using a buffer assay system. Partially purified CETP transferred radiolabeled cholesteryl ester from HDL donor particles to biotin-labeled LDL acceptor particles. The reaction was stopped by addition of streptavidin-coupled scintillation proximity assay (SPA) beads. These beads captured the biotinylated acceptor particles and transferred radioactivity was measured. The assay system was purchased and performed according to manufacturer's recommendations (Amersham Biosciences). Inhibitory activity of compounds was determined as percentage of positive control activity containing CETP together with donor and acceptor particles. Serial dilution of compounds was performed in order to determine the IC50 values. Activity of the compounds was subsequently measured in the presence of plasma using the same assay as described above except that the source of CETP was human lipoprotein-deprived serum (LPDS). Inhibitory activity of compounds was determined as percentage of positive control activity containing all the assay components except compound. Serial dilution of compounds was performed in order to determine the IC50 values.

SMILES | IC50
C[Si](C)(C)c1ccc(CN(CCc2cccc(OC(F)(F)F)c2)C(=O)c2c(F)c(Cl)cc3cc[nH]c23)cc1 [Example 1, 5-Chloro-6-fluoro-1H-indole-7-carboxylic acid [2-(3-trifluoromethoxy-phenyl)-ethyl]-(4-trimethylsilanyl-benzyl)-amide] | 21 nM
C[Si](C)(C)c1ccc(CN(CCc2cccc(C(F)(F)F)c2)C(=O)c2c(F)c(Cl)cc3cc[nH]c23)cc1 [Example 3, 5-Chloro-6-fluoro-1H-indole-7-carboxylic acid [2-(3-trifluoromethyl-phenyl)-ethyl]-(4-trimethylsilanyl-benzyl)-amide] | 16 nM
CC(C)[Si](C)(C)c1ccc(CN(CCc2cccc(C(F)(F)F)c2)C(=O)c2c(F)c(Cl)cc3cc[nH]c23)cc1 [Example 6, 5-Chloro-6-fluoro-1H-indole-7-carboxylic Acid [4-(isopropyl-dimethyl-silanyl)-benzyl]-[2-(3-trifluoromethyl-phenyl)-ethyl]-amide] | 44 nM
